What was measured:
Assay in all cases: relative viability (nuclei count vs DMSO), 5 days (fraction); higher = more cells survive
[1] = system: NCI-H596
How it was run: (§1)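 Lung cancer cell lines were pin-tool dosed in 1536-well plates on the day after seeding, with either a lone drug or a fixed anchor-drug dose plus five library-drug doses (not always all listed) in √10 steps. Nuclei were counted on 4× images after 5 days. Relative viability is the ratio of treated-well to vehicle-well nuclei counts, with each value a median of duplicate plates.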

[2] = system: COR-L23
How it was run: as §1

[3] = system: HCC-15
How it was run: as §1

[4] = system: LK-2
How it was run: as §1

[5] = system: HCC-44
How it was run: as §1

[6] = system: NCI-H1437
How it was run: as §1

[7] = system: NCI-H1975
How it was run: as §1

[8] = system: A-427
How it was run: as §1

[9] = system: SW 900
How it was run: as §1

[10] = system: NCI-H520
How it was run: as §1

[11] = system: COR-L 105
How it was run: as §1

[12] = system: NCI-H650
How it was run: as §1

[13] = system: EKVX
How it was run: as §1

[14] = system: HCC-827
How it was run: as §1

[15] = system: NCI-H838
How it was run: as §1

[16] = system: NCI-H1792
How it was run: as §1

[17] = system: NCI-H1666
How it was run: as §1

[18] = system: 201T
How it was run: as §1

[19] = system: SK-MES-1
How it was run: as §1

[20] = system: NCI-H522
How it was run: as §1

[21] = system: NCI-H23
How it was run: as §1

[22] = system: NCI-H441
How it was run: as §1

[23] = system: HARA
How it was run: as §1

[24] = system: LCLC-103H
How it was run: as §1

SMILES: C[C@@H]1CN(CC(=O)Nc2ccc3c(c2)Cc2cccc(-c4cc(=O)cc(N5CCOCC5)o4)c2S3)C[C@H](C)O1 + N=C(N)NC(=N)NCCc1ccccc1 [Phenformin] (partner 250 µM)
- relative viability ([1]; first compound 0.04 µM): 0.792
- relative viability ([1]; first compound 0.1265 µM): 0.658
- relative viability ([1]; first compound 0.4 µM): 0.635
- relative viability ([1]; first compound 4 µM): 0.757
- relative viability ([2]; first compound 0.04 µM): 0.435
- relative viability ([2]; first compound 0.1265 µM): 0.476
- relative viability ([2]; first compound 0.4 µM): 0.499
- relative viability ([2]; first compound 4 µM): 0.439
- relative viability ([3]; first compound 0.04 µM): 0.479
- relative viability ([3]; first compound 0.1265 µM): 0.437
- relative viability ([3]; first compound 0.4 µM): 0.401
- relative viability ([3]; first compound 4 µM): 0.363
- relative viability ([4]; first compound 0.1265 µM): 0.464
- relative viability ([4]; first compound 0.4 µM): 0.365
- relative viability ([4]; first compound 4 µM): 0.634
- relative viability ([5]; first compound 0.04 µM): 0.176
- relative viability ([5]; first compound 0.1265 µM): 0.233
- relative viability ([5]; first compound 0.4 µM): 0.161
- relative viability ([5]; first compound 4 µM): 0.114
- relative viability ([6]; first compound 0.04 µM): 0.338
- relative viability ([6]; first compound 0.1265 µM): 0.306
- relative viability ([6]; first compound 0.4 µM): 0.303
- relative viability ([6]; first compound 4 µM): 0.365
- relative viability ([7]; first compound 0.04 µM): 0.437
- relative viability ([7]; first compound 0.1265 µM): 0.39
- relative viability ([7]; first compound 0.4 µM): 0.393
- relative viability ([7]; first compound 4 µM): 0.332
- relative viability ([8]; first compound 0.04 µM): 0.298
- relative viability ([8]; first compound 0.1265 µM): 0.35
- relative viability ([8]; first compound 0.4 µM): 0.284
- relative viability ([8]; first compound 4 µM): 0.285
- relative viability ([9]; first compound 0.04 µM): 0.466
- relative viability ([9]; first compound 0.1265 µM): 0.724
- relative viability ([9]; first compound 0.4 µM): 0.669
- relative viability ([9]; first compound 4 µM): 0.488
- relative viability ([10]; first compound 0.04 µM): 0.464
- relative viability ([10]; first compound 0.1265 µM): 0.732
- relative viability ([10]; first compound 0.4 µM): 0.312
- relative viability ([10]; first compound 4 µM): 0.452
- relative viability ([11]; first compound 0.04 µM): 0.503
- relative viability ([11]; first compound 0.1265 µM): 0.444
- relative viability ([11]; first compound 0.4 µM): 0.552
- relative viability ([11]; first compound 4 µM): 0.468
- relative viability ([12]; first compound 0.04 µM): 0.417
- relative viability ([12]; first compound 0.1265 µM): 0.436
- relative viability ([12]; first compound 0.4 µM): 0.436
- relative viability ([12]; first compound 4 µM): 0.33
- relative viability ([13]; first compound 0.04 µM): 0.23
- relative viability ([13]; first compound 0.1265 µM): 0.25
- relative viability ([13]; first compound 0.4 µM): 0.234
- relative viability ([13]; first compound 4 µM): 0.221
- relative viability ([14]; first compound 0.04 µM): 0.429
- relative viability ([14]; first compound 0.1265 µM): 0.402
- relative viability ([14]; first compound 0.4 µM): 0.401
- relative viability ([14]; first compound 4 µM): 0.415
- relative viability ([15]; first compound 0.04 µM): 0.527
- relative viability ([15]; first compound 0.1265 µM): 0.54
- relative viability ([15]; first compound 0.4 µM): 0.497
- relative viability ([15]; first compound 4 µM): 0.374
- relative viability ([16]; first compound 0.04 µM): 0.35
- relative viability ([16]; first compound 0.4 µM): 0.303
- relative viability ([16]; first compound 4 µM): 0.526
- relative viability ([17]; first compound 0.04 µM): 0.57
- relative viability ([17]; first compound 0.1265 µM): 0.553
- relative viability ([17]; first compound 0.4 µM): 0.58
- relative viability ([17]; first compound 4 µM): 0.554
- relative viability ([18]; first compound 0.04 µM): 0.439
- relative viability ([18]; first compound 0.1265 µM): 0.423
- relative viability ([18]; first compound 0.4 µM): 0.477
- relative viability ([18]; first compound 4 µM): 0.517
- relative viability ([19]; first compound 0.04 µM): 0.723
- relative viability ([19]; first compound 0.1265 µM): 0.652
- relative viability ([19]; first compound 0.4 µM): 0.665
- relative viability ([19]; first compound 4 µM): 0.546
- relative viability ([20]; first compound 0.04 µM): 0.72
- relative viability ([20]; first compound 0.1265 µM): 0.718
- relative viability ([20]; first compound 0.4 µM): 0.635
- relative viability ([20]; first compound 4 µM): 0.608
- relative viability ([21]; first compound 0.04 µM): 0.719
- relative viability ([21]; first compound 0.1265 µM): 0.762
- relative viability ([21]; first compound 0.4 µM): 0.803
- relative viability ([21]; first compound 4 µM): 0.733
- relative viability ([22]; first compound 0.04 µM): 0.913
- relative viability ([22]; first compound 0.1265 µM): 0.897
- relative viability ([22]; first compound 0.4 µM): 0.682
- relative viability ([22]; first compound 4 µM): 0.722
- relative viability ([23]; first compound 0.1265 µM): 0.357
- relative viability ([23]; first compound 0.4 µM): 0.436
- relative viability ([23]; first compound 4 µM): 0.467
- relative viability ([24]; first compound 0.04 µM): 0.325
- relative viability ([24]; first compound 0.1265 µM): 0.299
- relative viability ([24]; first compound 0.4 µM): 0.302
- relative viability ([24]; first compound 4 µM): 0.331
